Experimental data: patent US20150328245A1, “Agents for Eliminating Tumour-Initiating Cells” (priority 2012, published 2015)
pIC50: −log10 of the molar value.

Tests used:
Type in all cases: cell-based
[1] = test system: MCF10A (normal breast cell line); assay: In vitro colorimetric cell death assay (MTT); settings: 48 hours
Protocol: (§1) It's an in vitro colorimetric assay for assessing cell viability where the cells are grown in Two-dimensional surface.
(§2) An exemplary procedure for the assay follows. Cancer cells and normal cells were plated in a 96 well plate as per predetermined plating efficiency. The plate was incubated for 24 hours in a 5% CO2 atmosphere at 37 degrees Celsius, a range of concentrations of the compounds I-1, I-2 and I-3 as well as cisplatin (known chemotherapeutic agents) were added to the separate wells, the plate was incubated further for 48 hours in a 5% CO2 atmosphere, the plate was centrifuged twice at 3000 rpm for 3 minutes, the supernatant fluid was discarded, 100 uL of 0.5 mg/mL MTT solution was added and the plate was incubated for 4 hours in a 5% CO2 atmosphere at 37 degrees Celsius. The plate was then centrifuged twice at 3000 rpm for 3 minutes, supernatant, was aspirated very carefully, 200 uL DMSO was added to each well to solubilize MTT crystals and mixed well by shaking the plate, the plate was incubated for 10 minutes in a 5% CO2 atmosphere at 37 degrees Celsius, the plate placed on the shaker of an ELISA plate reader and the absorbance at 570 nm was measured, then the percentage of viable cells remaining was calculated by first subtracting the background absorbance then comparing to the absorbance of a non-drug-treated cell sample, and the results were plotted on a graph to determine the IC50 for the compounds and cisplatin.

[2] = test system: L 929; assay: In vitro colorimetric cell death assay (MTT); settings: Mus musculus, L929; L 929, MTT, 48 hours; read-out: IC 50
Protocol: as §1, §2

[3] = test system: MCF-7; assay: In vitro colorimetric cell death assay (MTT); settings: Homo sapiens, MCF7; MCF-7, MTT, 48 hours
Protocol: as §1, §2

[4] = test system: MDAMB231; assay: In vitro colorimetric cell death assay (MTT); settings: Homo sapiens, MDA-MB-231, 48 hours
Protocol: as §1, §2

[5] = test system: DU145; assay: In vitro colorimetric cell death assay (MTT); settings: Homo sapiens, DU-145; DU145, MTT, 48 hours; read-out: IC 50
Protocol: as §1, §2

[6] = test system: breast cancer cells T47D; assay: In vitro 3D primary sphere forming stem cell assay
Protocol: (§3) This assay measures the ability of cancer stem cells to form spheres in a serum free media where the spheres are in a suspended form. Through this assay we evaluated the potency of the compounds of the invention to kill cancer stem cells in comparison with the known chemotherapeutic agent Cisplatin.
(§4) An exemplary procedure for the assay follows. Cells were grown in three dimensions on a plastic substrate, harvested in suspension in serum-free media, then the cells in the sample were trypsinized and a single cell suspension was formed by passing through a cell strainer. The cells were diluted according to the predetermined plating efficiency for the cell line being studied by suspending the cells in stem cell culture medium. 100 uL of this suspension was added into each well of a 96 well suspension plate, and the plate was incubated at 37 degrees Celsius in 5% CO2 atmosphere for 24 hours, then 2 uL of appropriate concentrations of the compounds of the invention and cisplatin were added into each respective well along with 100 uL of stem cell culture medium, and the plates were incubated at 37 degrees Celsius under 5% CO2 atmosphere for 72 hours. 2.5 uL of the compounds of the invention and cisplatin were added to each respective well along with 50 uL of stem cell culture medium and then the plates were incubated at 37 degrees Celsius under 5% CO2 atmosphere for 72 hours. 3 uL of appropriate concentrations of the compounds of the invention and cisplatin were added to each respective well along with 50 uL of stem cell culture medium and then the plates were incubated at 37 degrees Celsius under 5% CO2 atmosphere for 72 hours, then the spheres formed were observed under a microscope then counted and scored by size.
(§5) Results of the in vitro 3D sphere forming stem cell assay are set forth in a tabular manner. The number in each box is the total number of spheres formed in the presence of either cisplatin or compound I-2 or compound I-3 at each drug concentration. GC refers to a growth control performed in the absence of drug or solvent (DMSO). GCD refers to a growth control performed in the absence of drug, but in the presence of DMSO.

[7] = test system: prostate cancer cells LNCaP; assay: In vitro 3D primary sphere forming stem cell assay
Protocol: as §3, §4, §5

[8] = test system: prostate cancer cells DU145; assay: In vitro 3D primary sphere forming stem cell assay
Protocol: as §3, §4, §5

[9] = test system: breast cancer cells MDA MB 231; assay: In vitro 3D primary sphere forming stem cell assay
Protocol: as §3, §4, §5

[10] = test system: prostate cancer cells PC3; assay: In vitro 3D primary sphere forming stem cell assay
Protocol: as §3, §4, §5

[11] = test system: LNCaP; assay: In vitro soft agar colony forming growth assay; settings: Homo sapiens, 168 h, one week
Protocol: (§6) The Soft Agar Assay for Colony Formation is considered the most stringent assay for detecting malignant transformation of cells. In this assay the cells are cultured in medium with low percentage of agar.
(§7) An exemplary procedure for the assay follows.

[12] = test system: T47D; assay: In vitro soft agar colony forming growth assay; settings: Homo sapiens, 168 h, one week
Protocol: as §6, §7

[13] = test system: MCF-7; assay: In vitro soft agar colony forming growth assay; settings: Homo sapiens, MCF7, 168 h; MCF-7, soft agar, one week
Protocol: as §6, §7

[14] = test system: MDAMB231; assay: In vitro soft agar colony forming growth assay; settings: Homo sapiens, MDA-MB-231, 168 h; MDAMB231, soft agar, one week; read-out: IC 50
Protocol: as §6, §7

[15] = test system: DU145; assay: In vitro soft agar colony forming growth assay; settings: Homo sapiens, DU-145, 168 h, one week
Protocol: as §6, §7

[16] = test system: PC3; assay: In vitro soft agar colony forming growth assay; settings: Homo sapiens, PC-3, 168 h, one week
Protocol: as §6, §7

SMILES: COc1cc2c(OC3OCC(OC)C(OC)C3O)c3c(c(-c4ccc5c(c4)OCO5)c2cc1OC)C(=O)OC3 (centres unmarked) [I-2]
- IC50 [1]: No Activity
- pIC50 [2]: 5.86
- pIC50 [3]: 6.02
- pIC50 [4]: 6.48
- pIC50 [5]: 5.61
- numbers of primary spheres formed, compared with cisplatin ([6]; T47D): significantly less
- # of 3D Primary Spheres Formed of Cells T47D (±SD) ([6]; final conc. 0.125 μM): 84(±8)
- # of 3D Primary Spheres Formed of Cells T47D (±SD) ([6]; final conc. 1.25 μM): 34(±5)
- # of 3D Primary Spheres Formed of Cells T47D (±SD) ([6]; final conc. 12.5 μM): 28(±7)
- # of 3D Primary Spheres Formed of Cells T47D (±SD) ([6]; final conc. 125 μM): 14(±4)
- # of 3D Primary Spheres Formed of Cells T47D (±SD) ([6]; final conc. 1250 μM): 0(±0)
- numbers of primary spheres formed, compared with cisplatin ([7]; LNCaP): significantly less
- # of 3D Primary Spheres Formed of Cells LNCaP (±SD) ([7]; final conc. 0.125 μM): 98(±17)
- # of 3D Primary Spheres Formed of Cells LNCaP (±SD) ([7]; final conc. 1.25 μM): 49(±6)
- # of 3D Primary Spheres Formed of Cells LNCaP (±SD) ([7]; final conc. 12.5 μM): 6(±2)
- # of 3D Primary Spheres Formed of Cells LNCaP (±SD) ([7]; final conc. 125 μM): 0(±0)
- # of 3D Primary Spheres Formed of Cells LNCaP (±SD) ([7]; final conc. 1250 μM): 0(±0)
- numbers of primary spheres formed, compared with cisplatin ([8]; DU145): significantly less
- # of 3D Primary Spheres Formed of Cells DU145 (±SD) ([8]; final conc. 0.125 μM): 53(±5)
- # of 3D Primary Spheres Formed of Cells DU145 (±SD) ([8]; final conc. 1.25 μM): 41(±4)
- # of 3D Primary Spheres Formed of Cells DU145 (±SD) ([8]; final conc. 12.5 μM): 18(±7)
- # of 3D Primary Spheres Formed of Cells DU145 (±SD) ([8]; final conc. 125 μM): 7(±1)
- # of 3D Primary Spheres Formed of Cells DU145 (±SD) ([8]; final conc. 1250 μM): 0(±0)
- numbers of primary spheres formed, compared with cisplatin ([9]; MDA MB 231): significantly less
- # of 3D Primary Spheres Formed of Cells MDA MB231 (±SD) ([9]; final conc. 0.125 μM): 60(±9)
- # of 3D Primary Spheres Formed of Cells MDA MB231 (±SD) ([9]; final conc. 1.25 μM): 32(±5)
- # of 3D Primary Spheres Formed of Cells MDA MB231 (±SD) ([9]; final conc. 12.5 μM): 14(±2)
- # of 3D Primary Spheres Formed of Cells MDA MB231 (±SD) ([9]; final conc. 125 μM): 0(±0)
- # of 3D Primary Spheres Formed of Cells MDA MB231 (±SD) ([9]; final conc. 1250 μM): 0(±0)
- numbers of primary spheres formed, compared with cisplatin ([10]; PC3): significantly less
- # of 3D Primary Spheres Formed of Cells PC3 (±SD) ([10]; final conc. 0.125 μM): 81(±9)
- # of 3D Primary Spheres Formed of Cells PC3 (±SD) ([10]; final conc. 1.25 μM): 69(±3)
- # of 3D Primary Spheres Formed of Cells PC3 (±SD) ([10]; final conc. 12.5 μM): 63(±8)
- # of 3D Primary Spheres Formed of Cells PC3 (±SD) ([10]; final conc. 125 μM): 31(±6)
- # of 3D Primary Spheres Formed of Cells PC3 (±SD) ([10]; final conc. 1250 μM): 0(±0)
- pIC50 [11]: 6.15
- pIC50 [12]: 5.62
- pIC50 [13]: 6.21
- pIC50 [14]: 5.44
- pIC50 [15]: 5.50
- pIC50 [16]: 6.59
